Target: T1, Ba/F3 cell EGFR Exon20 ins NPH (Homo sapiens, UniProt P00533, INS773NPH)
T1 construct: expressed in transfected cells; host or cells: Ba/F3
Experiment: Ba/F3 cell proliferation suppression, EGFR Exon20 ins NPH
Assay type: cell-based
Settings: GI50 class; Ba/F3 cell line with NPH inserted at Exon20 of EGFR; 72 hours
Method in brief: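 Cells (3000–5000/well) plated 24 h before compound, 12-point 3-fold dilutions at 0.3 nM to 50 um final; Ba/F3 lines grown with 5 ng/ml IL-3. Viability by CellTiter-Glo luminescence after 72 h, growth ratio vs control, GI50 from curves; triplicate.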

## C=CC(=O)Nc1cc(Nc2cc(N3OCC[C@@H]3c3cccc4ccccc34)ncn2)c(OC)cc1N1CCC(N2CCN(C(C)C)CC2)CC1 [compound 490, N-(2-(4-(4-isopropylpiperazine-1-yl)piperidine-1-yl)-4-methoxy-5-((6-((R)-3-(naphthalene-1-yl)isoxazolidine-2-yl)pyrimidine-4-yl)amino)phenyl)acrylamide]
  Ba/F3 (NPH) Activity: A (GI50 < 50 nM)

## C=CC(=O)Nc1cc(Nc2cc(N3OCC[C@@H]3c3cccc(C#N)c3)ncn2)c(OC)cc1N1CCC(N2CCN(C3COC3)CC2)CC1 [Example 196, N-(5-((6-((R)-3-(3-cyanophenyl)isoxazolidine-2-yl)pyrimidine-4-yl)amino)-4-methoxy-2-(4-(4-(oxetane-3-yl)piperazine-1-yl)piperidine-1-yl)phenyl)acrylamide]
  Ba/F3 (NPH) Activity: A (GI50 < 50 nM)

## C=CC(=O)Nc1cc(Nc2cc(N3OCC[C@@H]3c3cccc(Cl)c3C)ncn2)c(OC)cc1N1CCC(N2CC3CCC(C2)N3C2CC2)CC1 [Example 154, N-(5-((6-((R)-3-(3-chloro-2-methylphenyl)isoxazolidine-2-yl)pyrimidine-4-yl)amino)-2-(4-(8-cyclopropyl-3,8-diazabicyclo [3.2.1]octan-3-yl)piperidine-1-yl)-4-methoxyphenyl) acrylamide]
  Ba/F3 (NPH) Activity: A (GI50 < 50 nM)

## C=CC(=O)Nc1cc(Nc2cc(N3OCC[C@@H]3Cc3ccc(C(F)(F)F)cc3)ncn2)c(OC)cc1N1CCC(N2C[C@@H]3C[C@H]2CO3)CC1 [compound 1052, N-(2-(4-((1S,4S)-2-oxa-5-azabicyclo [2.2.1]heptane-5-yl)piperidine-1-yl)-4-methoxy-5-((6-((S)-3-(4-(trifluoromethyl)benzyl)isoxazolidine-2-yl)pyrimidine-4-yl)amino)phenyl) acrylamide]
  Ba/F3 (NPH) Activity: A (GI50 < 50 nM)

## C=CC(=O)Nc1cc(Nc2cc(N3OCC[C@@H]3c3ccc(F)c(Cl)c3F)ncn2)c(OC)cc1N(C)CCN(C)C [compound 603, N-(5-((6-((R)-3-(3-chloro-2,4-difluorophenyl)isoxazolidine-2-yl)pyrimidine-4-yl)amino)-2-((2-(dimethylamino)ethyl)(methyl)amino)-4-methoxyphenyl) acrylamide]
  Ba/F3 (NPH) Activity: A (GI50 < 50 nM)

## C=CC(=O)Nc1cc(Nc2cc(N3OCC[C@@H]3c3cccc(Cl)c3Cl)ncn2)c(OC)cc1N1C[C@H]2C[C@@H]1CN2CC [compound 525, N-(5-((6-((R)-3-(2,3-dichlorophenyl)isoxazolidine-2-yl)pyrimidine-4-yl)amino)-2-((1R,4R)-5-ethyl-2,5-diazabicyclo[2.2.1]heptane-2-yl)-4-methoxyphenyl) acrylamide]
  Ba/F3 (NPH) Activity: A (GI50 < 50 nM)

## C=CC(=O)Nc1cc(Nc2cc(N3OCC[C@@H]3c3cccc(Cl)c3)ncn2)c(OC)cc1N1CC[C@@H](N(C)C)C1 [compound 469, N-(5-((6-((R)-3-(3-chlorophenyl)isoxazolidine-2-yl)pyrimidine-4-yl)amino)-2-((R)-3-(dimethylamino)pyrolidine-1-yl)-4-methoxyphenyl) acrylamide]
  Ba/F3 (NPH) Activity: A (GI50 < 50 nM)

## C=CC(=O)Nc1cc(Nc2cc(N3OCC[C@@H]3c3cccc(Cl)c3)ncn2)c(OC)cc1N1CCN(C(C)=O)CC1 [compound 464, N-(2-(4-acetylpiperazine-1-yl)-5-((6-((R)-3-(3-chlorophenyl)isoxazolidine-2-yl)pyrimidine-4-yl)amino)-4-methoxyphenyl) acrylamide]
  Ba/F3 (NPH) Activity: A (GI50 < 50 nM)

## C=CC(=O)Nc1cc(Nc2cc(N3OCC[C@@H]3c3ccc(C)nc3)ncn2)c(OC)cc1N1CCC(N(C)CCOC)CC1 [Example 229, N-(4-methoxy-2-(4-((2-methoxyethyl)(methyl)amino)piperidine-1-yl)-5-((6-((R)-3-(6-methylpyridine-3-yl)isoxazolidine-2-yl)pyrimidine-4-yl)amino)phenyl)acrylamide]
  Ba/F3 (NPH) Activity: B (50 nM ≤ GI50 < 500 nM)

## C=CC(=O)Nc1cc(Nc2cc(N3OCC[C@@H]3c3ccccc3)ncn2)c(OC)cc1N1CCN(CCN(C)C)CC1 [Example 278, N-(2-(4-(2-(dimethylamino)ethyl)piperazine-1-yl)-4-methoxy-5-((6-((R)-3-phenylisoxazolidine-2-yl)pyrimidine-4-yl)amino)phenyl) acrylamide]
  Ba/F3 (NPH) Activity: A (GI50 < 50 nM)

## C=CC(=O)Nc1cc(Nc2cc(N3OCC[C@@H]3c3ccc(Cl)cc3)ncn2)c(OC)cc1N1CC[C@@H](N2CCOCC2)C1 [compound 733, N-(5-((6-((R)-3-(4-chlorophenyl)isoxazolidine-2-yl)pyrimidine-4-yl)amino)-4-methoxy-2-((R)-3-morpholinopyrolidine-1-yl)phenyl)acrylamide]
  Ba/F3 (NPH) Activity: A (GI50 < 50 nM)

## C=CC(=O)Nc1cc(Nc2cc(N3OCC[C@@H]3c3ccc(C)nc3)ncn2)c(OC)cc1N1CCN(CCN(C)C)CC1 [Example 219, N-(2-(4-(2-(dimethylamino)ethyl)piperazine-1-yl)-4-methoxy-5-((6-((R)-3-(6-methylpyridine-3-yl)isoxazolidine-2-yl)pyrimidine-4-yl)amino)phenyl)acrylamide]
  Ba/F3 (NPH) Activity: B (50 nM ≤ GI50 < 500 nM)

## C=CC(=O)Nc1cc(Nc2cc(N3OCC[C@@H]3Cc3cccc(F)c3C)ncn2)c(OC)cc1N1CCC(N2CCN(C3CC3)[C@H](C)C2)CC1 [compound 1004, N-(2-(4-((R)-4-cyclopropyl-3-methylpiperazine-1-yl)piperidine-1-yl)-5-((6-((S)-3-(3-fluoro-2-methylbenzyl)isoxazolidine-2-yl)pyrimidine-4-yl)amino)-4-methoxyphenyl) acrylamide]
  Ba/F3 (NPH) Activity: A (GI50 < 50 nM)

## C=CC(=O)Nc1cc(Nc2cc(N3OCC[C@@H]3Cc3cccc(Cl)c3C)ncn2)c(OC)cc1N1CCC(N2C[C@@H]3C[C@H]2CO3)CC1 [compound 1029, N-(2-(4-((1S,4S)-2-oxa-5-azabicyclo [2.2.1]heptane-5-yl)piperidine-1-yl)-5-((6-((S)-3-(3-chloro-2-methylbenzyl)isoxazolidine-2-yl)pyrimidine-4-yl)amino)-4-methoxyphenyl) acrylamide]
  Ba/F3 (NPH) Activity: A (GI50 < 50 nM)

## C=CC(=O)Nc1cc(Nc2cc(N3OCC[C@@H]3c3cc(F)ccc3F)ncn2)c(OC)cc1N1CCC(N2CCO[C@@H](C)C2)CC1 [compound 821, N-(5-((6-((R)-3-(2,5-difluorophenyl)isoxazolidine-2-yl)pyrimidine-4-yl)amino)-4-methoxy-2-(4-((S)-2-methylmorpholino)piperidine-1-yl)phenyl) acrylamide]
  Ba/F3 (NPH) Activity: A (GI50 < 50 nM)

## C=CC(=O)Nc1cc(Nc2cc(N3OCC[C@@H]3c3cccc(C)c3F)ncn2)c(OC)cc1N1CCN(CC)CC1 [compound 847, N-(2-(4-ethylpiperazine-1-yl)-5-((6-((R)-3-(2-fluoro-3-methylphenyl)isoxazolidine-2-yl)pyrimidine-4-yl)amino)-4-methoxyphenyl) acrylamide]
  Ba/F3 (NPH) Activity: A (GI50 < 50 nM)

## C=CC(=O)Nc1cc(Nc2cc(N3OCC[C@@H]3c3cccc(C(F)(F)F)c3)ncn2)c(OC)cc1N1CCC(N2C[C@@H]3C[C@H]2CO3)CC1 [compound 944, N-(2-(4-((1S,4S)-2-oxa-5-azabicyclo [2.2.1]heptane-5-yl)piperidine-1-yl)-4-methoxy-5-((6-((R)-3-(3-(trifluoromethyl)phenyl)isoxazolidine-2-yl)pyrimidine-4-yl)amino)phenyl) acrylamide]
  Ba/F3 (NPH) Activity: A (GI50 < 50 nM)

## C=CC(=O)Nc1cc(Nc2cc(N3OCC[C@@H]3c3cccc(Cl)c3Cl)ncn2)c(OC)cc1N1CCC(N(C)CCN(C)C)CC1 [compound 613, N-(5-((6-((R)-3-(2,3-dichlorophenyl)isoxazolidine-2-yl)pyrimidine-4-yl)amino)-2-(4-((2-(dimethylamino)ethyl) (methyl)aino)piperidine-1-yl)-4-methoxyphenyl) acrylamide]
  Ba/F3 (NPH) Activity: B (50 nM ≤ GI50 < 500 nM)

## C=CC(=O)Nc1cc(Nc2cc(N3OCC[C@@H]3c3cc(F)ccc3F)ncn2)c(OC)cc1N(C)CCOC [compound 327, N-(5-((6-((R)-3-(2,5-difluorophenyl)isoxazolidine-2-yl)pyrimidine-4-yl)amino)-4-methoxy-2-((2-methoxyethyl) (methyl)amino)phenyl)acrylamide]
  Ba/F3 (NPH) Activity: B (50 nM ≤ GI50 < 500 nM)

## C=CC(=O)Nc1cc(Nc2cc(N3OCC[C@@H]3c3cccc(Cl)c3F)ncn2)c(OC)cc1N1CC[C@@H](N(C)C)C1 [compound 834, N-(5-((6-((R)-3-(3-chloro-2-fluorophenyl)isoxazolidine-2-yl)pyrimidine-4-yl)amino)-2-((R)-3-(dimethylamino)pyrolidine-1-yl)-4-methoxyphenyl) acrylamide]
  Ba/F3 (NPH) Activity: A (GI50 < 50 nM)

## C=CC(=O)Nc1cc(Nc2cc(N3OCC[C@@H]3c3cc(F)cc(Cl)c3)ncn2)c(OC)cc1N1CCC(N2CCO[C@@H](C)C2)CC1 [compound 595, N-(5-((6-((R)-3-(3-chloro-5-fluorophenyl)isoxazolidine-2-yl)pyrimidine-4-yl)amino)-4-methoxy-2-(4-((S)-2-methylmorpholino)piperidine-1-yl)phenyl) acrylamide]
  Ba/F3 (NPH) Activity: A (GI50 < 50 nM)

## C=CC(=O)Nc1cc(Nc2cc(N3OCC[C@@H]3c3cccc(Cl)c3C)ncn2)c(OC)cc1N1CCC(N2CCN(C)CC2)CC1 [compound 485, N-(5-((6-((R)-3-(3-chloro-2-methylphenyl)isoxazolidine-2-yl)pyrimidine-4-yl)amino)-4-methoxy-2-(4-(4-methylpiperazine-1-yl)piperidine-1-yl)phenyl) acrylamide]
  Ba/F3 (NPH) Activity: A (GI50 < 50 nM)

## C=CC(=O)Nc1cc(Nc2cc(N3OCC[C@@H]3c3cccc(Cl)c3F)ncn2)c(OC)cc1N1CCC(N2C[C@@H](C)N(C3CC3)C[C@H]2C)CC1 [Example 122, N-(5-((6-((R)-3-(3-chloro-2-fluorophenyl)isoxazolidine-2-yl)pyrimidine-4-yl)amino)-2-(4-((2R,5R)-4-cyclopropyl-2,5-dimethylpiperazine-1-yl)piperidine-1-yl)-4-methoxyphenyl) acrylamide]
  Ba/F3 (NPH) Activity: A (GI50 < 50 nM)
